Tested on: Carbonic Anhydrase
Test: Evaluation of Hydrochlorothiazide binding capacity by surface plasmon resonance on CA captured on an Anti-CA-immobilized chip
Settings: two minutes after start of replacement
Method: The following experiment was carried out using a device shown in FIG. 22 of Japanese Patent Laid-Open No. 2001-330560 (hereinafter referred to as the surface plasmon resonance measurement device of the present invention) (shown in FIG. 1 of the present specification) and a dielectric block shown in FIG. 23 of Japanese Patent Laid-Open No. 2001-330560 (hereinafter referred to as the dielectric block of the present invention) (shown in FIG. 2 of the present specification).
After solutions were removed from the above dextran measuring chip, 70 μl of a mixture solution of 200 mM EDC (N-ethyl-N′-(3-dimethylaminopropyl)carbodiimide hydrochloride) and 50 mM NHS (N-hydroxysuccinimide) was added and the chip was then allowed to stand for 10 minutes. After the mixture solution was removed, the chip was washed three times with 100 μl of water and three times with 100 μl of Acetate 4.5 buffer (produced by Biacore). The chip filled with 100 μl of Acetate 4.5 buffer was set on the surface plasmon resonance measurement device of the present invention. The inside of the chip was replaced with anti-Carbonic Anhydrase antibody (hereafter referred to as Anti-CA, which was purchased from COSMO BIO Co., Ltd.(NOR)) solution (dissolved in Acetate 4.5 (produced by BIAcore) to […]), and the chip was allowed to stand for 30 minutes for immobilizing the Anti-CA. The inside of the chip was then replaced with 1M ethanolamine solution, and the chip was allowed to stand for 10 minutes. The inside of the chip was washed ten times with 100 μl of Acetate 4.5 buffer, thereby preparing an Anti-CA-immobilized chip. The amount of change in resonance signal due to Anti-CA immobilization was 15,000RU. After the measurement of the signal change, the inside of the Anti-CA-immobilized chip was washed three times with 100μl of 1×PBS (pH7.4) buffer (Wako Pure Chemical Industries, Ltd.).
The dielectric block of the Anti-CA-immobilized chip was then capped with a silicon rubber, thereby preparing a cell with an inner volume of 15 μl. Also, a fluid channel system was prepared by making two 1-mm φ holes in the silicon rubber cap and putting a teflon tube (registered trademark) with an internal diameter of 0.5 mm and an external diameter of 1 mm through the holes. Individual chips with such fluid channel system were set on the surface plasmon resonance measurement device of the present invention.
The inside of the fluid channel system was filled with 1×PBS (pH7.4) buffer. Signal changes were measured at 0.5 seconds intervals with reference to the signal prior to the replacement of the fluid. The inside of the fluid channel system was then replaced with Carbonic Anhydrase (produced by SIGMA, hereinafter referred to as CA) solution (dissolved in 1×PBS (pH7.4) to 100 μg/ml). When the binding signal reached 3,000RU, the inside was replaced with Hydrochlorothiazide (produced by SIGMA) solution (dissolved in 1×PBS (pH7.4) to 50 μM) by the individual methods indicated in Table 1. […] In order to obtain highly reliable data, it is preferable that the compound binding detection signal be 5RU or more.

NS(=O)(=O)c1cc2c(cc1Cl)NCNS2(=O)=O [Hydrochlorothiazide]
Signal change (Method No. 1 (Example): 50 μM in 1×PBS pH7.4, fluid 100 μl, flow 100 μl/sec, replacement 1 sec, stop 119 sec): 15 RU | Signal change (Method No. 2 (Example): 50 μM in 1×PBS pH7.4, fluid 100 μl, flow 10 μl/sec, replacement 10 sec, stop 110 sec): 12 RU | Signal change (Method No. 3 (Example): 50 μM in 1×PBS pH7.4, fluid 150 μl, flow 5 μl/sec, replacement 30 sec, stop 90 sec): 10 RU | Signal change (Method No. 4 (Example): 50 μM in 1×PBS pH7.4, fluid 200 μl, flow 20 μl/sec, replacement 10 sec, stop 110 sec): 10 RU | Signal change (Method No. 5 (Comparative example): 50 μM in 1×PBS pH7.4, fluid 300 μl, flow 2.5 μl/sec, replacement 120 sec, stop 0 sec): −1 RU | Signal change (Method No. 6 (Comparative example): 50 μM in 1×PBS pH7.4, fluid 600 μl, flow 5 μl/sec, replacement 120 sec, stop 0 sec): −4 RU | Signal change (Method No. 7 (Comparative example): 50 μM in 1×PBS pH7.4, fluid 1200 μl, flow 10 μl/sec, replacement 120 sec, stop 0 sec): −10 RU | Signal change (Method No. 8 (Comparative example): 50 μM in 1×PBS pH7.4, fluid 2400 μl, flow 20 μl/sec, replacement 120 sec, stop 0 sec): −20 RU
